Where a SMILES comes first, the peptide text is derived from it.

One may read the IC50 as the concentration needed to halve the response being measured. Low readings indicate inhibition by little substance, high ones a need for much substance.

For this assay, the target named is T1, Neuropilin-2 (Nrp2) (Homo sapiens, UniProt O60462).
T1 sequence (O60462 276-595): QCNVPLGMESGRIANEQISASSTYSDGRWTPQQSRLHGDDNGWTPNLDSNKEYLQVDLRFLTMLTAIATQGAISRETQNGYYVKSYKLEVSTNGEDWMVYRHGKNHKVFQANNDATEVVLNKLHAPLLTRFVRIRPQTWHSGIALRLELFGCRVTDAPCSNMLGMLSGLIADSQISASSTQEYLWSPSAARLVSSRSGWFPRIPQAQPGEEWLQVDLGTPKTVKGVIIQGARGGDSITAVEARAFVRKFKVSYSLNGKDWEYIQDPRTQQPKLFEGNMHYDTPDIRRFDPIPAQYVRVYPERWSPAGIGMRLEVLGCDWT
Put plainly: competition plate assay: AP-VEGF-C binding to immobilised purified Nrp2-b1b2.
Turning to `Oc1cc2c(cc1O)[C@H]1c3ccccc3CN[C@@H]1CC2` (racemic) [Dihydrexidine], the half-inhibitory concentration (IC50) amounted to 113 µM.

On to `CC(C)C[C@H](NC(=O)[C@H](Cc1c[nH]c2ccccc12)NC(=O)[C@@H](NC(=O)[C@H](C)N)[C@@H](C)O)C(=O)N1CCC[C@H]1C(=O)N1CCC[C@H]1C(=O)N[C@@H](CCCNC(=N)N)C(=O)O` [ATWLPPR] (H-ATWLPPR-OH), for which the IC50 is 43 µM.

`COc1cc(C(=O)NS(=O)(=O)c2ccccc2C)ccc1Cc1cn(C)c2ccc(NC(=O)OC3CCCC3)cc12` [Zafirlukast] registered a 50% inhibitory concentration (IC50) of 66 µM.
